From EP4710919A1, “INJECTION PREPARATION AND PREPARATION METHOD THEREFOR, AND COMPATIBLE MEDICINAL LIQUID AND PREPARATION METHOD THEREFOR” (Ascentawits Pharmaceuticals, Ltd., priority 2023, dated 2024)

Columns and labels:
Format in all cases: physicochemical
[1] = Chiral stability study of the 1.00 mg/ml compatibility drug solution of Compound A (room temperature, HPLC contents of A-P1 and A-P2); details: in the compatibility solution of the injection formulation
Description: (§1) Compound A is a racemic mixture containing one chiral center. Its two isomers, named A-P1 and A-P2, can be obtained by resolving Compound A. During the formulation and compatibility studies, interconversion between the chiral isomers may affect the drug safety. Therefore, it is necessary to study the chiral stability of Compound A in both its injection formulation and the compatibility drug solution of the injection formulation.
(§2) • (a) The concentrated injection formulation of Compound A (2 ml: 20 mg) was prepared according to the aforementioned confirmed Formulation F19 and its preparation method. • (b) The compatibility drug solution with a concentration of 1.00 mg/ml was prepared according to the process for preparing a compatibility solution as described in Section 5.1.
For the 1.00 mg/ml compatibility drug solution (ready-to-use injection), the solution was stored at room temperature (25°C ± 2°C) under indoor ambient lighting. Samples were taken at different time points (0 h, 2 h, 4 h, 8 h and 24 h) and the contents of A-P1 and A-P2 were determined using the aforementioned HPLC method to evaluate chiral stability. Table 27: Chiral stability study of the concentrated Compound A injection

[2] = Stability of Compound A in formulations with different adjuvants at 2-8°C (HPLC content, total impurities, moisture); details: stored at 2-8°C for 10 days; all formulation solvent systems
Description: For the aforementioned treated Formulations F1 to F4, their specific formulation information is as follows ("p": the formulation obtained by adding ELP to the formulations in Table 3): • F1p: 300 mg API, 7.5 g ELP, and absolute ethanol added to 30 ml; • F2-1p: 3 g propylene glycol, 300 mg API, 7.5 g ELP, and absolute ethanol added to 30 ml; • F2-2p: 9 g propylene glycol, 300 mg API, 7.5 g ELP, and absolute ethanol added to 30 ml; • F3-1p: 1.5 g glycerin, 300 mg API, 7.5 g ELP, and absolute ethanol added to 30 ml; • F3-2p: 4.5 g glycerin, 300 mg API, 7.5 g ELP, and absolute ethanol added to 30 ml; • F4-1: 3 g DMA, 300 mg API, and absolute ethanol added to 30 ml; • F4-2: 9 g DMA, 300 mg API, and absolute ethanol added to 30 ml; • F4-3: 15 g DMA, 300 mg API, and absolute ethanol added to 30 ml.
The stability of Compound A in the aforementioned formulations was investigated. At the predetermined time points (Day 0, Day 5, Day 10), 1 ml samples were taken for HPLC analysis to detect the content, total impurities, and moisture, respectively. Table 4: Stability of Compound A in formulations with different adjuvants at 2-8°C

[3] = Compatibility and stability study of ready-to-use intravenous injections (0.02 and 1.00 mg/ml in pH-adjusted 5% glucose injection); details: after filtration, room temperature, indoor ambient lighting
Description: In order to provide compatibility information for the injection of the compound of formula I (Compound A, API) and the compatibility solutions, it is necessary to investigate the short-term stability of the injection in 5% glucose injection, a commonly used intravenous diluent. Considering that the API is instable in acidic environments, the pH of the 5% glucose injection is first adjusted to 7.4 using a sodium bicarbonate solution.
1.0 ml of 5% sodium bicarbonate injection was added to 250 ml of 5% glucose injection to adjust the pH, and mixed homogeneously. At this point, the pH of the mixed solution was approximately 8.0.
The Compound A injection (2 ml: 20 mg) was prepared with the pH-adjusted 5% glucose injection into a compatibility solution with a concentration of 0.02 mg/ml, and a compatibility solution with a concentration of 1.00 mg/ml.
0.501 ml of Compound A injection (2 ml: 20 mg) was added to a mixing bag containing 250 ml of 5% glucose injection (whose pH had been pre-adjusted using 5% sodium bicarbonate injection). The mixing bag was repeatedly inverted to ensure homogeneous mixing of the mixed solution before storage and sampling.
27.8 ml of Compound A injection (2 ml: 20 mg) was added to a mixing bag containing 250 ml of 5% glucose injection (whose pH had been pre-adjusted using 5% sodium bicarbonate injection). […]

[4] = Solubility of Compound A in single solvents (water, acidic and alkaline aqueous solutions, isopropanol, methanol) at 25°C
Description: The solubility of Compound A in single solvents (water, acidic and alkaline aqueous solutions, isopropanol, and methanol) was investigated. Table 1: Solubility investigation of Compound A at 25°C

[5] = Chiral stability study of the concentrated Compound A injection (-20±5°C, HPLC contents of A-P1 and A-P2); details: in its injection formulation
Description: as §1, §2
For the injection formulation of Compound A (concentrated injection), the formulation was stored under light-protected, sealed conditions at -20±5°C. Samples were taken at different time points (0 month, 1 month, 3 months), and the contents of A-P1 and A-P2 were determined using the aforementioned HPLC method for stability evaluation.

[6] = Solubility of Compound A in single adjuvant solvents at 25°C (supersaturated solution, sampled every 2 hours); details: organic solvent or mixture, thermodynamic from solid; for solubility at 0 h / solubility at 2 h / solubility at 4 h / solubility at 6 h: single solvent
Description: In order to increase the concentration of the active pharmaceutical ingredient in the injection, the solubility of the active pharmaceutical ingredient in single adjuvants was investigated to screen for optimal solvents, hydrotropic agents, or solubilizers. The solubility test of Compound A in single solvents was conducted as follows: Each of the single solvents was taken, a certain amount of API (the compound of formula I) was added at 25°C and stirred, and the dissolution of the API in the solvent system was observed. If the dissolution was complete, additional API was added continuously until a supersaturated solution was obtained. Samples were taken every 2 hours, filtered and assayed for content. Table 2: Solubility data of Compound A in single solvents at 25°C

[7] = Solubility of Compound A in formulations with different adjuvants, observations before and after treatment
Description: Compound A and Compound AST-3424 are structurally similar (both are nitrobenzyl derivatives and linked to a DNA alkylating agent with an aziridine structure that can effectively kill tumor cells). In addition, by releasing the DNA alkylating agent with an aziridine structure in tumor tissues or cells that overexpress the AKR1C3 enzyme, both compounds enable targeted recognition and treatment of any of the tumor tissues or cells that overexpress […] 1C3 (AKR1C3), and achieve the purpose of killing the tumor tissues or cells. Therefore, based on the same formulation development strategy, the inventors designed and selected an injection formulation similar to that of Compound AST-3424 (the optimal formulation of AST-3424: 10 mg/ml Compound AST-3424 + 75% ethanol + 25% propylene glycol) for use in the formulation study of Compound A.
In addition to the solvents used in the reference formulation of Compound AST-3424, absolute ethanol was employed as a commonly used and relatively safe non-aqueous solvent adjuvant for injection formulations. During the development of the product formulation, it was considered to add N,N-dimethylacetamide (DMA) or polyoxyethylene (35) castor oil (ELP) to improve solubility and facilitate the manufacturing convenience. […]

[8] = Polyethylene glycol 400 (PEG 400)
[9] = Polyoxyethylene (35) castor oil (ELP)

In the case of O=[N+]([O-])c1ccc(C(OP(=O)(N2CC2)N2CC2)C(F)(F)F)cc1Oc1ccc(-c2ccc(F)cc2)c(F)c1 (racemic) [Compound A], the chiral stability [1] is reported as “chirally stable”, the “stability with respect to content, total impurities, and moisture” value [2] is reported as “remained relatively stable” and the “changes in traits, color and clarity of solution, osmotic pressure, pH value, content of Compound A, and related substances” value ([3]; 0.02 mg/ml compatibility solutions, within 8 hours) is reported as “no significant changes”. The “changes in traits, color and clarity of solution, osmotic pressure, pH value, and content of Compound A” value ([3]; 1.00 mg/ml compatibility solutions, within 6 hours) was “no significant changes”, the Solubility ([4]; 0.1 mol/L HCl solution, 25°C) was “Practically insoluble” and the Solubility ([4]; 0.1 mol/L NaOH solution, 25°C) was “Practically insoluble”. For the same compound, the Solubility ([4]; Isopropanol, 25°C) was “Practically insoluble”, the Solubility ([4]; Methanol, 25°C) was “Sparingly soluble” and the Solubility ([4]; Water, 25°C) was “Practically insoluble”. For the same compound, the Solubility ([4]; in water, and acidic and alkaline aqueous solutions) was “extremely low solubility”, the chiral stability [5] was “chirally stable” and the Solubility ([6]; N,N-dimethylacetamide (single solvent), in N,N-dimethylacetamide) was > 200 mg/mL. For the same compound, the Solubility ([6]; polyoxyethylene (35) castor oil (single solvent), in polyoxyethylene (35) castor oil) was ~20 mg/mL, the solubility at 0 h ([6]; Ethanol) was 8.95 mg/mL and the solubility at 2 h ([6]; Ethanol) was 9.09 mg/mL. The solubility at 4 h ([6]; Ethanol) was 9.43 mg/mL, the solubility at 6 h ([6]; Ethanol) was 9.28 mg/mL and the solubility at 0 h ([6]; N,N-Dimethylacetamide (DMA)) was 248 mg/mL. The solubility at 2 h ([6]; N,N-Dimethylacetamide (DMA)) was 251 mg/mL, the solubility at 4 h ([6]; N,N-Dimethylacetamide (DMA)) was 251 mg/mL and the solubility at 6 h ([6]; N,N-Dimethylacetamide (DMA)) was 251 mg/mL. The solubility at 0 h [6, 8] was 12.2 mg/mL, the solubility at 2 h [6, 8] was 11.2 mg/mL and the solubility at 4 h [6, 8] was 15.3 mg/mL. The solubility at 6 h [6, 8] was 16 mg/mL, the solubility at 0 h [6, 9] was 18.6 mg/mL and the solubility at 2 h [6, 9] was 20.7 mg/mL. For the same compound, the solubility at 4 h [6, 9] was 20.7 mg/mL, the solubility at 6 h [6, 9] was 21.3 mg/mL and the “dissolution of Compound A” value ([7]; formulation prepared based on the formulation design of Compound AST-3424 (ethanol:propylene glycol 3:1, 300 mg in 30 ml)) was “cannot be completely dissolved”. For the same compound, the Solubility ([7]; mixed solvent of ethanol and propylene glycol) was “poorly soluble”.
